Measured values published in US11951204B2, “Cell-penetrating peptides and composition including the same” (S-SKIN. CO., LTD., priority 2022, dated 2024).
“And” between values parts separate entries of the source, which are not always exact repeats. Equal values may be shown once. Ends that are not written are not given here. Peptide text beside a SMILES is read from it. * marks the point of attachment. FITC = O=C1OC2(c3ccc(O)cc3Oc3cc(O)ccc32)c2ccc(NC(=S)*)cc21; Palmitoyl = CCCCCCCCCCCCCCCC(=O)*; Ahx = NCCCCCC(=O)O

Legend:
[1] = tested on: HaCaT cells; experiment: Cell penetration rate by flow cytometry; assay type: cell-based, human; conditions: 10 μM, 37° C., 1 hour
Experimental: (§1) HaCaT cells were inoculated at a concentration of 3×10^5 cells/well into a 6-well plate and incubated for 24 hours. Then, the cell culture medium was removed, followed by washing twice with HBSS, and replaced with an Opti-MEM medium. The cells were treated with 10 μM FITC-TAT, FITC-Spep001, FITC-Spep002 or FITC-Spep003 and incubated at 37° C. with 5% CO2 for 1 hour. […] Finally, the cells were treated with 1 mg/mL trypsin and thus separated into single cells, followed by centrifugation at 1,000 rpm for 5 minutes. The FITC fluorescence intensities of cell-penetrating peptides per living 10,000 cells were measured by performing flow cytometry (Navios Flow Cytometer by Beckman Coulter Life Sciences), and the result thereof is shown in FIG. 5A(i) to FIG. 5A(v) and FIG. 5B.

[2] = tested on: HaCaT cells; experiment: Dependence of cell penetration on ATP (flow cytometry); assay type: cell-based, human; conditions: pre-treated with 2-DG and NaN3
Experimental: as §1
A test was conducted in the same conditions as those in Example 7 except that the cells were pre-treated with 2-DG (2-deoxyglucose, D6134, sigma) and NaN3 (sodium azide, 71289, sigma) one hour before treatment with FITC-TAT, FITC-Spep001, FITC-Spep002 or FITC-Spep003 to check the dependence of endocytosis on ATP. Then, the FITC fluorescence intensities of peptides penetrating into living cells were measured by flow cytometry as in Example 5, and the result thereof is shown in FIG. 7.

[3] = tested on: HDF-N; experiment: Cytotoxicity assay of difunctional peptide (WST-1, microscopy); assay type: cell-based, human; conditions: for change in the appearance of the cells (microscope): 12.5 μM to 100 μM
[4] = as above; assay type: cell-based, human; conditions: human, HDF-N cells, HDF-N, read-out: cell proliferation rate / survival rate (WST-1); for viability at 24 h, 12.5 µM: 12.5 μM peptide; for viability at 24 h, 25 µM: 25 μM peptide; for viability at 24 h, 50 µM: 50 μM peptide; for viability at 24 h, 100 µM: 100 μM peptide
[5] = tested on: HDF-N cells; assay type: cell-based, human; conditions: for Cell viability(%): human, 24 h, 12.5 μM
Experimental: (§2) Cytotoxicity of the cell-penetrating multifunctional peptide according to Example 1 was checked. Specifically, HaCaT cells (human keratinocytes) were inoculated at a concentration of 1.5×10^4 cells/well into a 96-well plate and incubated for 24 hours. Then, the medium was removed, followed by washing once with PBS, and replaced with a serum-free medium. The cells were treated with Spep001 (SEQ ID NO: 1), Spep002 (SEQ ID NO: 8) or Spep003 (SEQ ID NO: 9) at a concentration of 0 μM, 25 μM, 50 μM, 100 μM or 200 μM and then further incubated for 24 hours. Herein, culture conditions were maintained at 37° C. with 5% CO2.
(§3) Also, at the time of completion of incubation, a WST-1 assay (Water Soluble Tetrazolium salt-1, EZ-assay kit, DoGenBio) was conducted. Specifically, 100 μL of a WST-1 solution was added to the well of cells after the completion of further incubation and then incubated for 3 hours. Thereafter, the absorbance at 450 nm was measured using a microplate spectrophotometer (Multiskan™ GO, thermo), and the result thereof is shown in FIG. 2B and Table 2 below.
HDF-N cells were treated with 12.5 μM KTTKS (SEQ ID NO: 5), Spep001-KTTKS (SEQ ID NO: 6) and pal-KTTKS which are peptides fabricated in Example 9. The appearance and proliferation rate of the cells were measured as in Example 3, and the results thereof are shown in FIG. 9A(i) to FIG. 9A(iv), FIG. 9B and Table 7 below.

[6] = tested on: collagen synthesis in HDF-N cells; experiment: Synthesis of collagen, PIP (procollagen Type 1C-peptide) ELISA; assay type: cell-based, human; conditions: 12.5 μM, 24 hours
Experimental: HDF-N cells were inoculated at a concentration of 1×10^4 cells/well into a 96-well plate and incubated for 24 hours. Then, the medium was removed, followed by washing twice with PBS, and replaced with a serum-free medium. Thereafter, 12.5 μM KTTKS (SEQ ID NO: 5), Spep001-KTTKS (SEQ ID NO: 6) and pal-KTTKS were added to each well and then incubated for 24 hours. Then, 10 μL of the cell culture fluid was obtained and centrifuged at 800 rpm for 5 minutes. Thereafter, the degree of synthesis of collagen was checked using a PIP (procollagen Type 1C-peptide) ELISA kit (MK101, Takara), and the result thereof is shown in FIG. 10 and Table 8 below.

[7] = Cytotoxicity assay (WST-1, microscopy) in HDF-N cells; assay type: cell-based, human; conditions: human, HDF-N cells (dermal fibroblasts, neonatal)
Experimental: as §2, §3
(§4) The appearance of HDF-N (human dermal fibroblast-neonatal) cells were imaged by a microscope as in Example 3, and the result thereof is shown in FIG. 3A(i) to FIG. 3A(xx). However, the HDF-N cells were inoculated at a concentration of 1.0×10^4 cells/well into a 96-well plate.

[8] = tested on: HDF-N (human dermal fibroblast-neonatal) cells; experiment: as above; assay type: cell-based
Experimental: as §2, §3, §4

[9] = Cytotoxicity assay (WST-1, microscopy) in HaCaT cells; assay type: cell-based, human; conditions: human, HaCaT cells (keratinocytes)
Experimental: as §2
(§5) At the time of completion of further incubation, the appearance of the cells were imaged by a microscope, and the result thereof is shown in FIG. 2A(i) to FIG. 2A(xx).
as §3
(§6) Herein, all the result values are expressed in mean±standard deviation. The analysis result of each item was statistically analyzed by a 2-way analysis of variance (ANOVA) test. A Bonferroni post-test was conducted at a P value of *p<0.05 and **p<0.01 only when the significance was determined by ANOVA test. GraphPad prism 5.0.1 (GraphPad Software Inc., San Diego, CA, USA) was used as a statistical software program.

[10] = tested on: HaCaT cells (human keratinocytes); experiment: as above; assay type: cell-based
Experimental: as §2, §5, §3, §6

## FITC-Ahx-RKRWLRKPRP ({FITC-Ahx}-RKRWLRKPRP) [FITC-Spep003, Spep003 labelled with FITC at the N-terminal amine group]
[1]
  cell penetration rate (FITC-positive cell count): 7.8%
  cell penetration rate based on TAT-FITC with a cell penetration rate of 100%: 28.8%
[2]
  FITC fluorescence intensity under ATP deficiency: decreased

## H-KTTKS-OH [KTTKS, reference compound]
[3]
  change in the appearance of the cells (microscope): no change in the appearance
[4]
  viability at 24 h, 12.5 µM: 104 ± 13%
  viability at 24 h, 25 µM: 107 ± 20.1%
  viability at 24 h, 50 µM: 105 ± 4.28%
  viability at 24 h, 100 µM: 119 ± 11.6%
[5]
  change in the appearance of the cells (microscope): no change in the appearance
  Cell viability(%): 110.58%
[6]
  PIP (collagen in cell culture fluid): 203.24 ng/mL and 203.24 ± 10.74 ng/mL
  amount of collagen synthesized based on the control: 159.99%

## KRRWRKIPKR [Spep002, KRRWRKIPKR]
[7]; HDF-N, 25 μM peptide, 24 hours, read-out: survival rate (WST-1)
  viability at 24 h, 25 µM: 102 ± 4.11%
[7]; HDF-N, 50 μM peptide, 24 hours, read-out: survival rate (WST-1)
  viability at 24 h, 50 µM: 104.6 ± 0.75%
[7]; HDF-N, 100 μM peptide, 24 hours, read-out: survival rate (WST-1)
  viability at 24 h, 100 µM: 108 ± 1.66%
[7]; HDF-N, 200 μM peptide, 24 hours, read-out: survival rate (WST-1)
  viability at 24 h, 200 µM: 101 ± 2.44%
[7]; at all concentrations (25-200 μM), read-out: survival rates of the HDF-N cells
  viability at 24 h: ≥ 90%
[8]; HDF-N cells
  cytotoxicity: do not express cytotoxicity
[8]; HDF-N, all concentrations
  change in the appearance of the cells (microscope): no change in the appearance
[9]; HaCaT, 25 μM peptide, 24 hours, read-out: survival rate (WST-1)
  viability at 24 h, 25 µM: 104.7 ± 0.17%
[9]; HaCaT, 50 μM peptide, 24 hours, read-out: survival rate (WST-1)
  viability at 24 h, 50 µM: 103 ± 1.97%
[9]; HaCaT, 100 μM peptide, 24 hours, read-out: survival rate (WST-1)
  viability at 24 h, 100 µM: 101 ± 1.97%
[9]; HaCaT, 200 μM peptide, 24 hours, read-out: survival rate (WST-1)
  viability at 24 h, 200 µM: 99.01 ± 0.62%
[9]; at all concentrations (25-200 μM), read-out: survival rates of the HaCaT cells
  viability at 24 h: ≥ 90%
[10]; HaCaT cells
  cytotoxicity: do not express cytotoxicity
[10]; HaCaT, all concentrations
  change in the appearance of the cells (microscope): no change in the appearance

## CCCCCCCCCCCCCCCC(=O)N[C@@H](CCCCN)C(=O)N[C@H](C(=O)N[C@H](C(=O)N[C@@H](CCCCN)C(=O)N[C@@H](CO)C(=O)O)[C@@H](C)O)[C@@H](C)O [Palmitoyl-KTTKS, Pal-KTTKS] (Palmitoyl-KTTKS-OH)
[5]
  change in the appearance of the cells (microscope): appearance of the cells treated with Pal-KTTKS was changed
  Cell viability(%): 109.22%

## RLRLRQRRRRKTTKS [Spep001-KTTKS, RLRLRQRRRRKTTKS]
[3]
  change in the appearance of the cells (microscope): no change in the appearance
[3]; HDF-N, 12.5 μM peptide
  cell proliferation rate / survival rate (WST-1): 167.45±13.38%
[4]
  viability at 24 h, 12.5 µM: 167 ± 13.4%
  viability at 24 h, 25 µM: 148 ± 8.42%
  viability at 24 h, 50 µM: 104 ± 3.16%
  viability at 24 h, 100 µM: 106 ± 11.4%
[5]
  change in the appearance of the cells (microscope): no change in the appearance
  Cell viability(%): 215.58%
